Experimental data taken from the supplement of paper PMC11208160.

Assay: recombinant barcode read abundance after kanamycin selection (control-corrected) (log10(CPM+1)); higher = more efficient recombination; sequences stand for … in AGTGCAGAGAAAATCGGCCAGTTTTCTCTGCCTGCAGTCCGCATGCCGT…AGATTTATGCAGCGGACTGCCTTTCTCCCAAAGTGATAAACCGGACAGTATCATGGACCGGTTTTCCCGGTAATCCGTATTTGCAAGGTTGGTTTCACT; site = the 11-nt target
In short: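 Pooled E. coli screen pairing targets with IS621 bridge RNA target-binding loops. Each oligo (promoter, target, barcode, J23119-driven first 104 bridge RNA bases) was Gibson-cloned into a vector with the remaining 73 bp and T7-inducible recombinase, then co-electroporated with a donor plasmid. Two replicates each were plated on chloramphenicol/ampicillin LB agar (control) or chloramphenicol/ampicillin/kanamycin with 0.1 mM IPTG. Recombination efficiency is recombinant-junction barcode counts as CPM, averaged, control-corrected, reported as log10(CPM+1).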

In order of falling “recombinant barcode read abundance (log10)” value:
1. TTGGATCCTTGGGTTCTAACCTGTTGCTT (site TTGGATCCTAA)  1.87
2. TTGGATCCTTGGGTTCTAACCTGTTGCTT (site TTGGATCCTAG)  1.85
3. TTGCGAGCTTGGGTTCTAACCTGTTGCAT (site TTGCGAGCTAT)  1.82
4. TTGGGTGCTTGGGTTCTAACCTGTTGCAT (site TTGGGTGCTAT)  1.3
5. TTGTGAGCTTGGGTTCTAACCTGTTGCCA (site TTGTGAGCTTG)  1.1
6. TTGTACACTTGGGTTCTAACCTGTTGCTC (site TTGTACACTGA)  1.06
7. TTGGGTTCTTGGGTTCTAACCTGTTGCCT (site TTGGGTTCTAG)  0.767
8. TTGTATTCTTGGGTTCTAACCTGTTGCCT (site TTGTATTCTAG)  0.679
9. TTGTACTCTTGGGTTCTAACCTGTTGCTT (site TTGTACTCTAA)  0.453
10. TTGGGCACTTGGGTTCTAACCTGTTGCCT (site TTGGACACTAG)  0.196
11. TTGGGCACTTGGGTTCTAACCTGTTGCCT (site TTGGCCACTAG)  0.176
12. TTGGGTGCTTGGGTTCTAACCTGTTGCAT (site TAGGCTGCTAT)  0.16
13. TTGTCGACTTGGGTTCTAACCTGTTGCCA (site TTGACGACTTG)  0.105
14. TTGGGCACTTGGGTTCTAACCTGTTGCCT (site TTGGTCACTAG)  0.103
15. TTGCGAGCTTGGGTTCTAACCTGTTGCAT (site TTGCGTGCTAA)  0.0906
16. TTGTCGACTTGGGTTCTAACCTGTTGCCA (site TTGTCGACTTG)  0.087
17. TTGTCGACTTGGGTTCTAACCTGTTGCCA (site TTGCCGACTTG)  0.0807
18. TTGTACTCTTGGGTTCTAACCTGTTGCTT (site TTGTGTTCTAA)  0.0725
19. TTGTGAGCTTGGGTTCTAACCTGTTGCCA (site ACAGTTACTAT)  0.0715
20. TTGGGCACTTGGGTTCTAACCTGTTGCCT (site TTGGGCACTAG)  0.0687
21. TTGGGTTCTTGGGTTCTAACCTGTTGCCT (site TTGGGTGCTCG)  0.0625
22. TTGTACACTTGGGTTCTAACCTGTTGCTC (site CAACTAGCTAT)  0.043
23. TTGTATTCTTGGGTTCTAACCTGTTGCCT (site TTGAATTCTAA)  0.0409
24. TTGTCGACTTGGGTTCTAACCTGTTGCCA (site TTGGCGACTTG)  0.00572

Assay: recombinant barcode read abundance after kanamycin selection (control-corrected) (log10(CPM+1)); higher = more efficient recombination; sequences stand for … in AGTGCAGAGAAAATCGGCCAGTTTTCTCTGCCTGCAGTCCGCATGCCGT…ATTTATGCAGCGGACTGCCTTTCTCCCAAAGTGATAAACCGGACAGTATCATGGACCGGTTTTCCCGGTAATCCGTATTTGCAAGGTTGGTTTCACT; site = the 11-nt target
Procedure: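 Same pooled E. coli target screen (IS621 bridge recombinase, kanamycin selection, control-corrected CPM, mean of 2 biological replicates). Here the two core-binding nucleotides of the LTG and RTG of the bridge RNA target-binding loop are mutated. Target and donor CT cores are held constant, and the other 9 guide positions match the target. The target is read from the library oligo sequence. Molecule = full bridge RNA written as DNA: nt 1-80 from the library oligo, rest WT scaffold.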

In order of falling “recombinant barcode read abundance (log10)” value:
1. AAACAGTCTTGGGTTCTAACCTGTTGCCTAG [AAACAGTCTAG_LTGcore_CT_RTGcore_CT] (site AAACAGTCTAG) (LTG core: CT, RTG core: CT)  2.46
2. AAACAGTCTTGGGTTCTAACCTGTTGCCTTA [AAACAGTCTAG_LTGcore_CT_RTGcore_TA] (site AAACAGTCTAG) (LTG core: CT, RTG core: TA)  1.78
3. AAACACACCTGGGTTCTAACCTGTTGCCTGG [AAACACACTAG_LTGcore_CC_RTGcore_CC] (site AAACACACTAG) (LTG core: CC, RTG core: CC)  1.46
4. AAACATGCTTGGGTTCTAACCTGTTGCCTAG [AAACATGCTAG_LTGcore_CT_RTGcore_CT] (site AAACATGCTAG) (LTG core: CT, RTG core: CT)  1.43
5. AAACATGCTTGGGTTCTAACCTGTTGCCTGA [AAACATGCTAG_LTGcore_CT_RTGcore_TC] (site AAACATGCTAG) (LTG core: CT, RTG core: TC)  1.4
6. AAACACACTTGGGTTCTAACCTGTTGCCTTT [AAACACACTAG_LTGcore_CT_RTGcore_AA] (site AAACACACTAG) (LTG core: CT, RTG core: AA)  0.938
7. AAACACACTTGGGTTCTAACCTGTTGCCTGG [AAACACACTAG_LTGcore_CT_RTGcore_CC] (site AAACACACTAG) (LTG core: CT, RTG core: CC)  0.927
8. AAACAGTCTTGGGTTCTAACCTGTTGCCTGG [AAACAGTCTAG_LTGcore_CT_RTGcore_CC] (site AAACAGTCTAG) (LTG core: CT, RTG core: CC)  0.921
9. AAACAGTCTTGGGTTCTAACCTGTTGCCTGA [AAACAGTCTAG_LTGcore_CT_RTGcore_TC] (site AAACAGTCTAG) (LTG core: CT, RTG core: TC)  0.883
10. AAACACACTTGGGTTCTAACCTGTTGCCTGT [AAACACACTAG_LTGcore_CT_RTGcore_AC] (site AAACACACTAG) (LTG core: CT, RTG core: AC)  0.639
11. AAACACACGTGGGTTCTAACCTGTTGCCTAG [AAACACACTAG_LTGcore_CG_RTGcore_CT] (site AAACACACTAG) (LTG core: CG, RTG core: CT)  0.622
12. AAACATGGCTGGGTTCTAACCTGTTGCCTAG [AAACATGCTAG_LTGcore_GC_RTGcore_CT] (site AAACATGCTAG) (LTG core: GC, RTG core: CT)  0.349
13. AAACAGTTCTGGGTTCTAACCTGTTGCCTGA [AAACAGTCTAG_LTGcore_TC_RTGcore_TC] (site AAACAGTCTAG) (LTG core: TC, RTG core: TC)  0.262
14. AAACAGTATTGGGTTCTAACCTGTTGCCTAT [AAACAGTCTAG_LTGcore_AT_RTGcore_AT] (site AAACAGTCTAG) (LTG core: AT, RTG core: AT)  0.204
15. AAACAGTGCTGGGTTCTAACCTGTTGCCTAG [AAACAGTCTAG_LTGcore_GC_RTGcore_CT] (site AAACAGTCTAG) (LTG core: GC, RTG core: CT)  0.16
16. AAACATGCATGGGTTCTAACCTGTTGCCTAG [AAACATGCTAG_LTGcore_CA_RTGcore_CT] (site AAACATGCTAG) (LTG core: CA, RTG core: CT)  0.141
17. AAACATGAATGGGTTCTAACCTGTTGCCTTT [AAACATGCTAG_LTGcore_AA_RTGcore_AA] (site AAACATGCTAG) (LTG core: AA, RTG core: AA)  0.133
18. AAACAGTAGTGGGTTCTAACCTGTTGCCTCT [AAACAGTCTAG_LTGcore_AG_RTGcore_AG] (site AAACAGTCTAG) (LTG core: AG, RTG core: AG)  0.13
19. AAACACAAATGGGTTCTAACCTGTTGCCTTT [AAACACACTAG_LTGcore_AA_RTGcore_AA] (site AAACACACTAG) (LTG core: AA, RTG core: AA)  0.0994
20. AAACACATGTGGGTTCTAACCTGTTGCCTCA [AAACACACTAG_LTGcore_TG_RTGcore_TG] (site AAACACACTAG) (LTG core: TG, RTG core: TG)  0.0962
21. AAACATGACTGGGTTCTAACCTGTTGCCTAG [AAACATGCTAG_LTGcore_AC_RTGcore_CT] (site AAACATGCTAG) (LTG core: AC, RTG core: CT)  0.0862
22. AAACATGATTGGGTTCTAACCTGTTGCCTAT [AAACATGCTAG_LTGcore_AT_RTGcore_AT] (site AAACATGCTAG) (LTG core: AT, RTG core: AT)  0.0454
23. AAACACAAGTGGGTTCTAACCTGTTGCCTAG [AAACACACTAG_LTGcore_AG_RTGcore_CT] (site AAACACACTAG) (LTG core: AG, RTG core: CT)  0.0385
24. AAACACATTTGGGTTCTAACCTGTTGCCTAG [AAACACACTAG_LTGcore_TT_RTGcore_CT] (site AAACACACTAG) (LTG core: TT, RTG core: CT)  0.0289
25. AAACATGCATGGGTTCTAACCTGTTGCCTTG [AAACATGCTAG_LTGcore_CA_RTGcore_CA] (site AAACATGCTAG) (LTG core: CA, RTG core: CA)  0.0197
26. AAACACAGATGGGTTCTAACCTGTTGCCTAG [AAACACACTAG_LTGcore_GA_RTGcore_CT] (site AAACACACTAG) (LTG core: GA, RTG core: CT)  0.0116
